Results from patent US20250099625A1, “TANDEM MOLECULAR FLUORESCENCE REPORTERS FOR DETECTION OF TUMOR-INFILTRATING LEUKOCYTES” (Nanyang Technological University, priority 2021, published 2025).

Tested on: 4T1 tumor
Test: Therapeutic efficacy, 4T1 tumor-bearing mice
Protocol: (c) Tumor growth curves (n=6) and (d) overall survival curves (n=6) of 4T1 tumor-bearing mice. […] 95% confidence intervals were obtained by two-sided Student t-test analysis. […] Data are presented as mean±SD and analyzed by two-tailed Student's t-test.
FIG. 47 depicts the tumor control rate and body weights of mice. […] (c) Body weights of 4T1 tumor-bearing mice after intraperitoneal injection of saline, Oxa (6 mg/kg), aPD-L1 (10 mg/kg) and aPD-L1/Oxa at day 0, 2 and 4. […] Statistical significance was performed by two-tailed Student's t-test. ns: not significant, *P<0.05, **P<0.01, ***P<0.001, ****P<0.0001.
After tumor inoculation for one week, 4T1 tumor-bearing mice were administrated with aPD-L1 (10 mg/kg), Oxa (6 mg/kg) or the combination of aPD-L1 and Oxa (aPD-L1/Oxa) intraperitoneally every two days for three times.
The tumor control rate was calculated with the following formulas:
Vt0 means the volume of tumor on day 0, Vt means the volume at certain time, c means the control group (saline, without irradiation), and s means the group needed calculation.

**Q.** `O=C1[O][Pt]2([NH][C@@H]3CCCC[C@H]3[NH]2)[O]C1=O` [Oxa, oxaliplatin] was tested. Which survival rate did it give?
**A.** 50%

**Q.** And the “tumor control rate (TCR)” value (intraperitoneal, every two days for three times)?
**A.** 48%
